Patent US20070197552A1, “Method and composition for treatment of diabetes, hypertension, chronic heart failure and fluid retentive states” (Novo Nordisk A/S, priority 2002, published 2007)
Counter-ions that a name gives are not always drawn.

Columns and labels:
[1] = system: Non-fasted anaesthetised pigs; test: In vivo testing of combination treatment: GLP-1 infusion and iv glucose load under DPP IV inhibition, with and without NEP 24.11 inhibition; parameters: species or system pig
Method: Non-fasted anaesthetised pigs (n=5) were given valine-pyrrolidide (250 μmol/kg; V) to inhibit DPP IV activity throughout the experiment. An intraveneous (iv) infusion of GLP-1 (0.75 pmol/kg/min) was started, during which an iv glucose load (0.2 g/kg over 9 min) was given. 90 min after the end of the first GLP-1 infusion, candoxatril was administered iv (5 mg/kg; C), and the protocol (GLP-1 and glucose infusion) was repeated. In addition, during both GLP-1 infusions, simultaneous blood samples were taken from the carotid artery, the renal, femoral, hepatic and portal veins for determination of arterio-venous GLP-1 concentration differences. Samples were analysed for blood glucose, insulin, glucagon and GLP-1 concentrations.

[2] = anaesthetised pigs, iv GLP-1 infusion

Cn1c(=O)c2c(nc(N3CC[C@H](N)C3)n2Cc2ccccc2Br)n(C)c1=O (as salt: HCl) [Example 12, (S) 8-(3-Aminopyrrolidin-1-yl)-7-(2-bromobenzyl)-1,3-dimethyl-3,7-dihydropurine-2,6-dione]
melting point: 215 to 217 °C

Cn1c(=O)c2c(nc(N3CC[C@H](N)C3)n2Cc2ccccc2C#N)n(C)c1=O (as salt: HCl) [Example 8, (S) 2-(8-(3-Aminopyrrolidin-1-yl)-1,3-dimethyl-2,6-dioxo-1,2,3,6-tetrahydropurin-7-ylmethyl)benzonitrile]
melting point: 104 to 117 °C

CC(C)[C@H](N)C(=O)N1CCCC1 [VP, valine-pyrrolidide]
plasma levels of GLP-1 (plateau level) ([1]; anaesthetised pigs n=5, iv GLP-1 infusion 0.75 pmol/kg/min, valine-pyrrolidide 250 μmol/kg, candoxatril 5 mg/kg iv, FIG. 1): 73 ± 13 pmol/L | glucagon concentrations ([1]; anaesthetised pigs, 20 min period following C administration, before start of the GLP-1 infusion, FIG. 4): 9 ± 2 pmol/L | insulin secretion (AUC27-67 min) ([1]; anaesthetised pigs, GLP-1 and glucose infusion, FIG. 3): 3606 ± 668 pmol·min/L | renal clearance (organ extraction) of GLP-1 ([1]; anaesthetised pigs, calculated from arterio-venous GLP-1 concentration differences): 58.7±4.3% | metabolic clearance rate of GLP-1 [1, 2]: 25.1 ± 3.9 mL/min/kg | plasma t½ of GLP-1 [1, 2]: 2.5 ± 0.2 min | glucose excursion (ΔAUC2-77 min) ([1]; anaesthetised pigs, iv glucose load 0.2 g/kg over 9 min during GLP-1 infusion, FIG. 2): 59 ± 4 mmol·min/L | glucose elimination rate ([1]; anaesthetised pigs, iv glucose load during GLP-1 infusion): 6.6±0.5 %/min

Cn1c(=O)c2c(nc(N3CC[C@H](N)C3)n2Cc2ccccc2)n(C)c1=O (as salt: HCl) [Example 3, (S) 8-(3-Aminopyrrolidin-1-yl)-7-benzyl-1,3-dimethyl-3,7-dihydropurine-2,6-dione]
melting point: 166 to 169 °C
